Laboratory results taken from the NIST ThermoML archive (doi:10.1016/j.fluid.2013.07.044).

Assay: Boiling temperature at pressure P
Details: Liquid, Ebulliometric method (Recirculating still)

CCCCCCCC [octane]
Details | Boiling temperature at pressure P [°C]
22.95 kPa | 79.68
29.98 kPa | 87.07
37.87 kPa | 93.74
44.82 kPa | 98.74
52.81 kPa | 103.78
59.85 kPa | 107.72
66.66 kPa | 111.21
75.23 kPa | 115.23
82.72 kPa | 118.44
89.51 kPa | 121.17
99.01 kPa | 124.72

C1CCCCC1 [cyclohexane]
Details | Boiling temperature at pressure P [°C]
24.08 kPa | 39.63
30.7 kPa | 45.81
38.72 kPa | 51.92
46.85 kPa | 57.17
55.2 kPa | 61.86
61.52 kPa | 65.06
69.06 kPa | 68.52
77.87 kPa | 72.22
85.44 kPa | 75.13
91.68 kPa | 77.38
101.32 kPa | 80.63

CCO [ethanol]
Details | Boiling temperature at pressure P [°C]
20.14 kPa | 42.46
30.24 kPa | 50.67
40.31 kPa | 56.77
50.39 kPa | 61.69
70.33 kPa | 69.34
80.63 kPa | 72.62
85.67 kPa | 74.11
98.45 kPa | 77.53
100.79 kPa | 78.13
110.86 kPa | 80.53
120.93 kPa | 82.77
131.02 kPa | 84.84
141.1 kPa | 86.79
151.1 kPa | 88.62
160 kPa | 90.41
170 kPa | 92.09
180 kPa | 93.62
190 kPa | 95.16
200 kPa | 96.60

CCCO [propan-1-ol]
Details | Boiling temperature at pressure P [°C]
69.79 kPa | 87.71
74.92 kPa | 89.5
79.6 kPa | 90.96
84.8 kPa | 92.6
89.78 kPa | 93.99
94.77 kPa | 95.37
99.7 kPa | 96.67
105.14 kPa | 98.2
110.1 kPa | 99.27
113.19 kPa | 100.00
120.75 kPa | 101.73
130.1 kPa | 103.76
171 kPa | 111.42
199.9 kPa | 115.99
228.5 kPa | 120.00
229.9 kPa | 120.20
260 kPa | 123.98
290 kPa | 127.42
310 kPa | 129.56
330 kPa | 131.59
350 kPa | 133.54
380 kPa | 136.28
400 kPa | 138.03
420 kPa | 139.69
450 kPa | 142.08
480 kPa | 144.37
500 kPa | 145.81
520 kPa | 147.22
530 kPa | 147.91
550 kPa | 149.26
561.5 kPa | 150.01

CCCCCCC [heptane]
Details | Boiling temperature at pressure P [°C]
10.23 kPa | 35.76
16.91 kPa | 47.28
23.5 kPa | 55.43
35.39 kPa | 66.27
56.16 kPa | 79.51
67.57 kPa | 85.09
74.44 kPa | 88.22
79.37 kPa | 90.30
86.51 kPa | 93.16
100.11 kPa | 98.06
